In patent US4464396A, “4-[N-(Hydroxybenzyl)aminomethyl]cyclohexane-1-carboxylic acid” (Kureha Kagaku Kogyo Kabushiki Kaisha, priority 1981, dated 1984):
pIC50: −log10 of the molar value.

Experiments:
[1] = test system: Rat's polynuclear leukocyte migration; experiment: Inhibitory effect on polynuclear leukocyte migration (Boyden method); format: cell-based; conditions: rat polynuclear leukocytes, read-out: Concentration of 50% inhibition of polynuclear leukocyte migration IC50
Excerpt: (1) Examination for inhibitory effect on polynuclear leukocyte migration:
Rat's polynuclear leukocyte migration was examined by the Boyden method.

[2] = Acute toxicity, peroral administration of aqueous solution to mice; conditions: mouse, in vivo, po, female JCL-ICR mice 5 to 6 weeks old
Excerpt: (2) Examination for acute toxicity:
Acute toxicity was examined by administering perorally an aqueous solution of each Specimen to female JCL-ICR mice 5 to 6 weeks after their birth.

Structure (SMILES)	pIC50 [1]	LD50 [2]
COc1ccc2c(c1)c(CC(=O)O)c(C)n2C(=O)c1ccc(Cl)cc1 [III]	3.62	
O=C(O)[C@H]1CC[C@H](CNCc2ccc(O)c(O)c2)CC1 [II]	4.49	> 3000 mg/kg
O=C(O)[C@H]1CC[C@H](CNCc2ccccc2O)CC1 [I]	3.47	> 3000 mg/kg
